This is an account of results in PubChem BioAssay AID179 (DTP/NCI, 2004).

Where “and” joins values, the source holds several entries; their conditions need not be identical. Equal entries are not always repeated. Calls of active or inactive are those of the source.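 Rule for the calls: active = compounds giving half or more protection of infected cells from virus-caused growth loss, again on retest; inactive = the rest.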

In general, EC50 refers to the concentration needed to bring the measured effect to its halfway point. As a reminder, the IC50 is the concentration needed to halve the response being measured.

The subject of the experiment is CEM cells HIV-1 protection, formazan growth assay. Briefly: NCI AIDS Antiviral Assay. Particulars: for IC50: measured here: growth of uninfected CEM cells. An outline of the steps:
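Category rules: moderately active means at least 50% protection on retest, and confirmed active means 100% protection reproducibly. The underlying data came from a formazan growth assay in HIV-1-infected CEM cells.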

`CN(C)C(=S)SSSC(=S)N(C)C`: the EC50 was > 20 µM and the IC50 was 0.513 µM.

In the case of `CCOC(=O)c1c(-c2ccc(O)c(OC)c2)c(C#N)c(=S)n(C2OC(COC(C)=O)C(OC(C)=O)C(OC(C)=O)C2OC(C)=O)c1-c1ccccc1` (stereo not drawn), the EC50 was > 200 µM; the IC50 was 91.2 µM and 64.6 µM.

Turning to `O=C(O)CC(NC(=O)Nc1ccc([N+](=O)[O-])cc1)C(=O)Nc1ccc([N+](=O)[O-])cc1` (stereo not drawn), the EC50 was > 200 µM and the IC50 is > 200 µM.

With `NC1(CCCCCCCCCCC(=O)O)CNCCNCCNCCNC1`, the EC50 was > 437 µM and the IC50 is 3.47 µM.

In the case of `N#Cc1cccc(CSc2ncnc3nc[nH]c23)c1`, the EC50 is > 200 µM and the IC50 was determined as 81.3 µM.

For `COc1ccccc1NS(=O)(=O)c1ccc2ncn(NS(=O)(=O)c3ccc(Cl)cc3)c(=O)c2c1`, the outcome was inactive.

Regarding `COc1ccc(NC(=O)/C(N=O)=C(/C)O)cc1`, the EC50 was > 1050 µM and the IC50 was > 1050 µM.

Take `O=C1C[C@@H]2[C@@H](C=CC23CCCC3)N1O`: the outcome was inactive.

For the compound `CN(C)CCN(C)CCC(=O)/C=C/c1ccccc1`, the result was inactive.

As for `Cc1ccc(OCC2OC(n3cnc4c(Br)nc(Br)nc43)CC2Oc2ccc(C)cc2)cc1` (stereo not drawn), the EC50 was > 200 µM and the IC50 is 2.09 µM.

Regarding `COC(=O)/C(C#N)=C\N1CCNC1=S`, the EC50 is > 200 µM and the IC50 was > 200 µM.

Consider `CN(C)c1ccc(C(Cc2ccccc2)C2NC(=S)NC2=O)cc1` (stereo not drawn), for which the EC50 is > 200 µM and the IC50 was 15.5 µM.

Turning to `C/C=C/C=Nc1c(C#N)c2n(c1C(=O)Nc1ccc(S(N)(=O)=O)cc1)CCC2`, the EC50 is > 200 µM and the IC50 came out at 11 µM.

Take `CCN(CC)C(=S)SCn1ncc2ccc([N+](=O)[O-])cc21`: the EC50 is > 107 µM and the IC50 turned out to be 10 µM.

As to `CN(C)C(=S)OC(Cn1cncn1)c1ccc(Cl)cc1Cl` (stereo not drawn), the EC50 was > 513 µM and the IC50 is 427 µM.

Consider `C=C(C)CNC(=S)N(N)c1ccc(OC)cc1`, for which the EC50 is > 200 µM and the IC50 was 69.2 µM.

Regarding `CN(C)CCNc1ccc(CO)c2oc3ccc(O)cc3c(=O)c12`, the EC50 was > 398 µM and the IC50 came out at 1.15 µM.

With `C/C(=N\N=C(N)N)c1sc(-c2nc(C)c(/C(C)=N/N=C(N)N)s2)nc1C`, the EC50 was > 126 µM and the IC50 was > 126 µM.

In the case of `COc1c(Br)cc(Br)c(OC)c1-c1ccc[nH]1`, the EC50 is > 38 µM and the IC50 was > 38 µM.

For `O=c1/c(=C/c2ccccc2[N+](=O)[O-])sc2nnc(-c3ccco3)n12`, the EC50 was > 29.5 µM and the IC50 is > 29.5 µM.

As for `CCCCCCCc1cc(OC(=O)c2c(C)cc(OC)cc2O)cc(O)c1C(=O)O`, the EC50 is > 162 µM and the IC50 is 83.2 µM.

As for `O=C(CO[N+](=O)[O-])OC/C=C/c1ccccc1`, the outcome was inactive.

As to `CN(C)CC(C)(C)C(=O)/C=C/c1ccccc1`, the result was inactive.

On to `CC(C)(C)c1cc(COc2c3sc(=S)sc3c(OCc3cc(C(C)(C)C)cc(C(C)(C)C)c3)c3sc(=S)sc23)cc(C(C)(C)C)c1`, for which the result was inactive.

As to `O=CC1CCC=CC1NC(=O)OCc1ccccc1` (stereo not drawn), the outcome was inactive.

For `COc1cc2c(cc1OC)[C@H](C)N1CCc3cc(OC)c(OC)cc3[C@@H]1C2`, the EC50 is > 200 µM and the IC50 is > 200 µM.

In the case of `CC1(C)CC2C(=O)c3ccccc3NC2c2ccccc21` (stereo not drawn), the EC50 is > 2 µM and the IC50 stood at 0.269 µM.

For the compound `Cc1c2n(c3ccccc13)CC1CON(C)C21` (stereo not drawn), the EC50 is > 1100 µM and the IC50 was found to be 355 µM.

For the compound `Cc1noc(NS(=O)(=O)c2ccc(N=c3c4ccccc4n(Cc4ccccc4)c4ccccc34)cc2)c1C`, the outcome was inactive.

With `COc1ccc(C(c2ccc(C(C)C)cc(OC)c2=O)c2ccc(C(C)C)cc(OC)c2=O)cc1`, the result was inactive.

Regarding `Cc1ccsc1C(=S)Nc1ccc(Cl)c(/C=N/OC(C)C)c1`, the EC50 is 0.0575 µM and the IC50 stood at 10.7 µM.

As for `O=[N+]([O-])c1ccc(-c2ccc(C3=Nn4c(CNc5ccccc5Cl)nnc4SC3)o2)cc1`, the EC50 is > 11.2 µM and the IC50 is > 11.2 µM.

For the compound `CC1CC[P+](C)(Cc2ccccc2)C1` (mixture of isomers), the EC50 is > 437 µM and the IC50 worked out at 162 µM.

With `NNC(=O)Cn1ccnn1`, the EC50 was > 200 µM and the IC50 was > 200 µM.

On to `CC(=O)Nn1cnc(C(=N)C#N)c1N`, for which the EC50 is > 200 µM and the IC50 was > 200 µM.

Regarding `Cc1cc(N(CCC#N)S(=O)(=O)c2ccccc2)ccc1C=Nc1cccc(C(=O)O)c1`, the EC50 was > 151 µM and the IC50 was > 151 µM.

As for `CC12CCC3(C1)[C@H](CC2=O)C[C@@H](OC(=O)c1ccccc1)C1C(C)(C(=O)O)CCC[C@@]13C` (stereo partly drawn), the EC50 was > 295 µM and the IC50 was 13.5 µM.

As to `N#CC(C#N)=Cc1ccc(Cl)cc1`, the EC50 was > 72.4 µM and the IC50 is 66.1 µM.

As for `COC(=O)c1ccc(/C=C2\Cc3ccccc3C2=O)cc1`, the EC50 was > 200 µM and the IC50 was > 200 µM.

As for `NCCCN1CCN(CCCN)CC1` (tested in a mixture with another compound), the EC50 is > 200 µM and the IC50 is > 200 µM.

As for `CCOC(=O)CN1C(=O)S/C(=C2\C(=O)N(C)c3ccc(Br)cc32)C1=O`, the EC50 was > 200 µM and the IC50 was > 200 µM.

With `O=c1c(Cl)c(N2CCOCC2)cnn1-c1ccccc1`, the EC50 is > 234 µM and the concentration for half-maximal inhibition (IC50) is 209 µM.

For the compound `O=C(O)c1c[nH]c2cc(O)ccc2c1=O`, the EC50 is > 200 µM and the IC50 is > 200 µM.

`CCOC(=O)C(NC(=O)CC)(C(F)(F)F)P(=O)(OCC)OCC` (stereo not drawn): the EC50 was > 200 µM and the IC50 was > 200 µM.

On to `Nc1nc(N)nc(CC(=O)O)n1`, for which the EC50 was > 200 µM and the IC50 is > 200 µM.

Consider `C/C(CC(=O)Nc1ccc(Cl)cc1)=N\NC(=O)C[n+]1ccccc1`, for which the EC50 was > 49 µM and the IC50 was > 49 µM.

In the case of `C/C(=C\CCC1=CC(=O)OC1)CC[C@@H]1[C@H]2C(=O)CC(C)[C@@]3(C)CC[C@]1(C)[C@@]23C` (stereo partly drawn), the EC50 was > 200 µM and the IC50 amounted to 34.7 µM.

Turning to `O[C@@H]1CCN(Cc2ccccc2)C[C@@H]1CNC12CC3CC(CC(C3)C1)C2`, the EC50 is > 72.4 µM and the IC50 was > 72.4 µM.

For `CN(C)c1nc(=Nc2ccc3ccccc3c2)ss1`, the result was inactive.

For the compound `COc1ccc(Nc2nnc(CCCCCCCCc3nnc(Nc4ccc(OC)cc4)o3)o2)cc1`, the EC50 was > 200 µM and the IC50 was > 200 µM.

For `O=C1OC2(c3ccccc31)c1ccccc1-c1ccccc12`, the EC50 is > 66.1 µM and the IC50 is > 66.1 µM.

On to `O=C1/C(=C/c2ccc3c(c2)CCC3)Cc2cc3c(cc21)CCC3`, for which the EC50 was > 200 µM and the IC50 is > 200 µM.

As for `Cc1cn(C2CC(O)C(COC(=O)CCCCCCCCCCCN=[N+]=[N-])O2)c(=O)[nH]c1=O` (stereo not drawn), the EC50 is 10 µM and the IC50 turned out to be 21.4 µM.

Regarding `O=C(/C=C(\N=P(c1ccccc1)(c1ccccc1)c1ccccc1)C(F)(F)C(F)(F)C(F)(F)C(F)(F)C(F)(F)C(F)(F)C(F)(F)F)c1ccccc1`, the EC50 is > 200 µM and the IC50 was > 200 µM.

For `CCOC(=O)Cn1c(=O)c2nc(SC)sc2n(-c2ccc(C)cc2)c1=S`, the EC50 was > 200 µM and the half-inhibitory concentration (IC50) was > 200 µM.

On to `CCCCCCCCCCCCCC(=O)OCC(CCS(=O)(=O)O[C@H]1CC[C@@]2(C)C(=CC[C@@H]3C2CC[C@]2(C)C(=O)CCC32)C1)OC(=O)CCCCCCCCCCCCC` (stereo partly drawn), for which the EC50 was 39.8 µM and the IC50 was > 100 µM.

`Cn1c(-c2cccs2)cc(-c2ccsc2)c1-c1cccs1`: the outcome was inactive.

As for `CC1CC2C3CC(F)C4=CC(=O)C=CC4(C)C3(F)C(O)CC2(C)C1(O)C(=O)COC(=O)C(C)(C)C` (stereo not drawn), the result was inactive.

On to `COC(=O)C(CNC(=O)/C=C/c1ccc(OC)c(OC)c1)NC(=O)/C=C/c1ccc(OC)c(OC)c1` (stereo not drawn), for which the EC50 was > 200 µM and the IC50 turned out to be 135 µM.

Consider `C[N+](C)(C)c1ccc2c(c1)N(S(C)(=O)=O)CC2CCl` (stereo not drawn), for which the outcome was inactive.

Take `COC(=O)c1c/c(=N\NC(=O)CC(=O)Nc2ccccc2OC)c2ccccc2o1`: the EC50 is > 229 µM and the IC50 is > 229 µM.

For the compound `CCCCCCc1ccc(C(=O)NO)cc1`, the EC50 was > 200 µM and the IC50 came out at 91.2 µM.

As for `O=C(CCC(=O)Nc1ccccc1C(F)(F)F)N/N=C1\C(=N\NC(=O)CCC(=O)Nc2ccccc2C(F)(F)F)C(c2ccc3c(c2)OCO3)Oc2ccccc21` (stereo not drawn), the EC50 was > 23.4 µM and the IC50 was > 23.4 µM.

Consider `O=S1(=O)C=Cc2ccccc2CC1`, for which the EC50 is > 1290 µM and the IC50 is 741 µM.

For `CCc1cccc(CC)c1Nc1nc2c(s1)C(=O)c1ccccc1C2=O`, the EC50 was > 200 µM and the IC50 came out at 33.1 µM.

As to `O=C1Cc2c([nH]c3cc(Br)ccc23)-c2ccccc2N1`, the EC50 is > 200 µM and the IC50 came to 8.91 µM.

`CCCCCCCCCCCCOC(=N)N(C)C`: the EC50 is > 200 µM and the IC50 stood at 2 µM.

On to `OCCN=C1Nc2ccc(Cl)cc2C(=S)N2CSC[C@@H]12`, for which the EC50 was > 200 µM and the IC50 was > 200 µM.

For the compound `Cc1cn(C2CC3C(COC(c4ccccc4)N3O)O2)c(=O)[nH]c1=O` (stereo not drawn), the EC50 is > 200 µM and the IC50 came to 34.7 µM.

For the compound `COc1cc(CCCOC(=O)/C=C/c2ccc(O)c(O)c2)cc(O)c1O`, the EC50 is > 200 µM and the IC50 is > 200 µM.

For `O=C1c2nc3n(c2C(=O)c2c1nc1n2CCC1)CCC3`, the EC50 was > 200 µM and the IC50 was 3.72 µM.

In the case of `CCC[CH2][Sn]1([CH2]CCC)[O]C(=O)C2C(C(=O)[O]1)C1(Cl)C(Cl)=C(Cl)C2(Cl)C1(Cl)Cl` (stereo not drawn), the EC50 was > 200 µM and the IC50 worked out at 0.182 µM.

For `N#CC(C#N)=CN1CCCC1`, the EC50 is > 200 µM and the IC50 is > 200 µM.
